Measured values reported in ChEMBL document CHEMBL1212696, “Multienzyme docking in hybrid megasynthetases” (Nat Chem Biol, 2008).

What was measured:
[1] = Binding affinity to wild type Angiococcus disciformis PKS/NRPS R20A mutant expressed in Escherichia coli BL21 (DE3) by surface plasmon resonance assay
[2] = Binding affinity to wild type Angiococcus disciformis PKS/NRPS R27A mutant expressed in Escherichia coli BL21 (DE3) by surface plasmon resonance assay
[3] = Binding affinity to wild type Angiococcus disciformis PKS/NRPS expressed in Escherichia coli BL21 (DE3) by isothermal titration calorimetry
[4] = Binding affinity to wild type Angiococcus disciformis PKS/NRPS R29A mutant expressed in Escherichia coli BL21 (DE3) by surface plasmon resonance assay
[5] = Binding affinity to wild type Angiococcus disciformis PKS/NRPS R20A/R29A mutant expressed in Escherichia coli BL21 (DE3) by surface plasmon resonance assay
[6] = Binding affinity to wild type Angiococcus disciformis PKS/NRPS R27A/R29A mutant expressed in Escherichia coli BL21 (DE3) by surface plasmon resonance assay
[7] = Binding affinity to wild type Angiococcus disciformis PKS/NRPS expressed in Escherichia coli BL21 (DE3) by surface plasmon resonance assay
[8] = Binding affinity to wild type Angiococcus disciformis PKS/NRPS R20A/R27A mutant expressed in Escherichia coli BL21 (DE3) by surface plasmon resonance assay

## CCCC(=O)OCN(C(=O)[C@@H](NC(=O)[C@H]1CCCCN1C)[C@@H](C)CC)[C@H](C[C@@H](OC(C)=O)c1nc(C(=O)N[C@@H](Cc2ccc(O)cc2)C[C@H](C)C(=O)O)cs1)C(C)C [TUBULYSIN B]
[1]
  Kd: 59 µM
[2]
  Kd: 121 µM
[3]
  Kd: 47 µM
[4]
  Kd: 453 µM
[5]
  Kd: 596 µM
[6]
  Kd: 282 µM
[7]
  Kd: 46 µM
[8]
  Kd: 114 µM
